“And” between values parts separate entries of the source, which are not always exact repeats. Equal entries are not always repeated.
Tested on: 996289-038-R-J1-PDC spheroid viability
Assay: Anticancer human tumor 996289-038-R-J1-PDC patient-derived colon adenocarcinoma cell line growth inhibition [PI3K]
Conditions: spheroids with HUVEC and MSC; for viability, T/C: stronger effect = lower value
Method in brief: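 Agents were dosed from a top concentration near clinical Cmax (otherwise 10 microM) in half-log decrements, alone or combined with PI3K inhibitors. The spheroids contain tumor cells plus endothelial (HUVEC) and MSC stroma; viability is measured.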

[1] = curve of first compound, second compound 0.0316 µM
[2] = curve of first compound, second compound 0.1 µM
[3] = curve of first compound, second compound 0.316 µM
[4] = curve of first compound, second compound 1 µM
[5] = second compound 0.0316 µM, first compound 0.0316 µM
[6] = second compound 0.0316 µM, first compound 0.1 µM
[7] = second compound 0.1 µM, first compound 0.0316 µM
[8] = second compound 0.1 µM, first compound 0.1 µM
[9] = second compound 0.316 µM, first compound 0.0316 µM
[10] = second compound 0.316 µM, first compound 0.1 µM
[11] = second compound 1 µM, first compound 0.0316 µM
[12] = second compound 1 µM, first compound 0.1 µM
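Note: spheroids exposed to compounds for seven days before viability read.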
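Throughout, for viability, T/C: luminescence used as a proxy for viable cell amount; percent viability relative to DMSO vehicle control as 100%.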

Which results are given for `CC(=O)c1c(C)c2cnc(Nc3ccc(N4CCNCC4)cn3)nc2n(C2CCCC2)c1=O` + CC(Nc1ccc2c(c1)OCCn1cc(N3C(=O)OCC3C(F)F)nc1-2)C(N)=O?
IC50 (curve of first compound, second compound 0.00316 µM): > 0.1 µM; IC50 (curve of first compound, second compound 0.01 µM): > 0.1 µM; IC50 [1]: > 0.1 µM; IC50 [2]: > 0.1 µM; IC50 [3]: > 0.1 µM; IC50 [4]: 0.0796 µM; viability, T/C (second compound 0.00316 µM, first compound 0.000316 µM): 89.9%; viability, T/C (second compound 0.00316 µM, first compound 0.001 µM): 106%; viability, T/C (second compound 0.00316 µM, first compound 0.00316 µM): 103%; viability, T/C (second compound 0.00316 µM, first compound 0.01 µM): 93.9%; viability, T/C (second compound 0.00316 µM, first compound 0.0316 µM): 96.5%; viability, T/C (second compound 0.00316 µM, first compound 0.1 µM): 93.3%; viability, T/C (second compound 0.01 µM, first compound 0.000316 µM): 105%; viability, T/C (second compound 0.01 µM, first compound 0.001 µM): 90.5%; viability, T/C (second compound 0.01 µM, first compound 0.00316 µM): 101%; viability, T/C (second compound 0.01 µM, first compound 0.01 µM): 96.4%; viability, T/C (second compound 0.01 µM, first compound 0.0316 µM): 96.7%; viability, T/C (second compound 0.01 µM, first compound 0.1 µM): 92%; viability, T/C (second compound 0.0316 µM, first compound 0.000316 µM): 101%; viability, T/C (second compound 0.0316 µM, first compound 0.001 µM): 85.3%; viability, T/C (second compound 0.0316 µM, first compound 0.00316 µM): 95.8%; viability, T/C (second compound 0.0316 µM, first compound 0.01 µM): 87.5%; viability, T/C [5]: 92.8%; viability, T/C [6]: 81.2%; viability, T/C (second compound 0.1 µM, first compound 0.000316 µM): 82.2%; viability, T/C (second compound 0.1 µM, first compound 0.001 µM): 70%; viability, T/C (second compound 0.1 µM, first compound 0.00316 µM): 85.3%; viability, T/C (second compound 0.1 µM, first compound 0.01 µM): 92.5%; viability, T/C [7]: 87.8%; viability, T/C [8]: 76.5%; viability, T/C (second compound 0.316 µM, first compound 0.000316 µM): 73%; viability, T/C (second compound 0.316 µM, first compound 0.001 µM): 81.6%; viability, T/C (second compound 0.316 µM, first compound 0.00316 µM): 63.4%; viability, T/C (second compound 0.316 µM, first compound 0.01 µM): 64.8%; viability, T/C [9]: 70.9%; viability, T/C [10]: 68.8%; viability, T/C (second compound 1 µM, first compound 0.000316 µM): 58.7%; viability, T/C (second compound 1 µM, first compound 0.001 µM): 72.5%; viability, T/C (second compound 1 µM, first compound 0.00316 µM): 58.9%; viability, T/C (second compound 1 µM, first compound 0.01 µM): 57.7%; viability, T/C [11]: 57.8%; viability, T/C [12]: 48.2%

Which viability, T/C (compound 0.0316 µM) does the source give for `CC(C)NCC(C(=O)N1CCN(c2ncnc3c2C(C)CC3O)CC1)c1ccc(Cl)cc1` (stereo unspecified) here?
Its viability, T/C is 106% [middle of 4 runs].

What about the viability, T/C (compound 0.1 µM) of the same compound?
Its viability, T/C is 86.8% [middle of 4 runs].

What about the viability, T/C (compound 0.316 µM) of the same compound?
Its viability, T/C is 99.8% [middle of 4 runs].

And the viability, T/C (compound 1 µM)?
The viability, T/C was 94.2% [middle of 4 runs].

And the viability, T/C (compound 3.16 µM)?
The viability, T/C was 88% [middle of 4 runs].

What about the viability, T/C (compound 10 µM) of the same compound?
Its viability, T/C is 78.7% [middle of 4 runs].

What about the IC50 (curve of compound) of the same compound?
Its IC50 is greater than 10 µM.

`Cn1ncc(Cl)c1-c1cc(C(=O)NC(CN)Cc2cccc(F)c2)sc1Cl` (stereo unspecified) was tested. Which viability, T/C (compound 0.0316 µM) did it give?
Its viability, T/C is 90% [middle of 4 runs].

And the viability, T/C (compound 0.1 µM)?
The viability, T/C was 90.5% [middle of 4 runs].

What about the viability, T/C (compound 0.316 µM) of the same compound?
The viability, T/C was 84% [middle of 4 runs].

And the viability, T/C (compound 1 µM)?
Its viability, T/C is 79.9% [middle of 4 runs].

And the viability, T/C (compound 3.16 µM)?
Its viability, T/C is 75.6% [middle of 4 runs].

And the viability, T/C (compound 10 µM)?
The viability, T/C was 52.2% [middle of 4 runs].

What about the IC50 (curve of compound) of the same compound?
Its IC50 is > 10 µM and 9.82 µM.

How did the viability, T/C (compound 0.0316 µM) turn out when `CCCS(=O)(=O)Nc1ccc(F)c(C(=O)c2c[nH]c3ncc(-c4ccc(Cl)cc4)cc23)c1F` was run?
The viability, T/C was 106% [middle of 4 runs].

And the viability, T/C (compound 0.1 µM)?
Its viability, T/C is 93.7% [middle of 4 runs].

And the viability, T/C (compound 0.316 µM)?
The viability, T/C was 100% [middle of 4 runs].

What about the viability, T/C (compound 1 µM) of the same compound?
The viability, T/C was 94.5% [middle of 4 runs].

And the viability, T/C (compound 3.16 µM)?
Its viability, T/C is 96.8% [middle of 4 runs].

What about the viability, T/C (compound 10 µM) of the same compound?
The viability, T/C was 23.3% [middle of 4 runs].

What about the IC50 (curve of compound) of the same compound?
The IC50 was 6.53 µM [middle of 4 runs].

For `Cn1nccc1Nc1nccc(-c2ccn(C(CO)c3ccc(Cl)c(F)c3)c(=O)c2)n1` (stereo unspecified) + CC(Nc1ncnc2nc[nH]c12)c1cc2cccc(Cl)c2c(=O)n1-c1ccccc1, which IC50 [1] is on record?
The IC50 was greater than 10 µM.

What about the IC50 [2] of the same compound?
Its IC50 is greater than 10 µM.

And the IC50 [3]?
Its IC50 is greater than 10 µM.

And the IC50 [4]?
Its IC50 is 8.64 µM.

What about the IC50 (curve of first compound, second compound 3.16 µM) of the same compound?
The IC50 was greater than 10 µM.

And the IC50 (curve of first compound, second compound 10 µM)?
Its IC50 is 7.53 µM.

What about the viability, T/C [5] of the same compound?
Its viability, T/C is 86.6%.

And the viability, T/C [6]?
The viability, T/C was 97.5%.

And the viability, T/C (second compound 0.0316 µM, first compound 0.316 µM)?
Its viability, T/C is 95.5%.

What about the viability, T/C (second compound 0.0316 µM, first compound 1 µM) of the same compound?
Its viability, T/C is 90.1%.

What about the viability, T/C (second compound 0.0316 µM, first compound 3.16 µM) of the same compound?
Its viability, T/C is 84.6%.

And the viability, T/C (second compound 0.0316 µM, first compound 10 µM)?
Its viability, T/C is 61.5%.

What about the viability, T/C [7] of the same compound?
The viability, T/C was 108%.

What about the viability, T/C [8] of the same compound?
Its viability, T/C is 89.4%.

And the viability, T/C (second compound 0.1 µM, first compound 0.316 µM)?
The viability, T/C was 120%.

What about the viability, T/C (second compound 0.1 µM, first compound 1 µM) of the same compound?
The viability, T/C was 92.8%.

And the viability, T/C (second compound 0.1 µM, first compound 3.16 µM)?
The viability, T/C was 81.7%.

And the viability, T/C (second compound 0.1 µM, first compound 10 µM)?
The viability, T/C was 53.1%.

What about the viability, T/C [9] of the same compound?
The viability, T/C was 105%.

And the viability, T/C [10]?
Its viability, T/C is 90.8%.

What about the viability, T/C (second compound 0.316 µM, first compound 0.316 µM) of the same compound?
Its viability, T/C is 105%.

What about the viability, T/C (second compound 0.316 µM, first compound 1 µM) of the same compound?
The viability, T/C was 93.3%.

What about the viability, T/C (second compound 0.316 µM, first compound 3.16 µM) of the same compound?
Its viability, T/C is 79.6%.

And the viability, T/C (second compound 0.316 µM, first compound 10 µM)?
The viability, T/C was 55.6%.

What about the viability, T/C [11] of the same compound?
Its viability, T/C is 91.7%.

And the viability, T/C [12]?
The viability, T/C was 101%.

What about the viability, T/C (second compound 1 µM, first compound 0.316 µM) of the same compound?
Its viability, T/C is 87.9%.

What about the viability, T/C (second compound 1 µM, first compound 1 µM) of the same compound?
Its viability, T/C is 94.4%.

What about the viability, T/C (second compound 1 µM, first compound 3.16 µM) of the same compound?
Its viability, T/C is 76.9%.

What about the viability, T/C (second compound 1 µM, first compound 10 µM) of the same compound?
The viability, T/C was 46.1%.

What about the viability, T/C (second compound 3.16 µM, first compound 0.0316 µM) of the same compound?
Its viability, T/C is 88.1%.

And the viability, T/C (second compound 3.16 µM, first compound 0.1 µM)?
The viability, T/C was 87.2%.

And the viability, T/C (second compound 3.16 µM, first compound 0.316 µM)?
The viability, T/C was 99.7%.

What about the viability, T/C (second compound 3.16 µM, first compound 1 µM) of the same compound?
The viability, T/C was 86.1%.

And the viability, T/C (second compound 3.16 µM, first compound 3.16 µM)?
The viability, T/C was 70.3%.

What about the viability, T/C (second compound 3.16 µM, first compound 10 µM) of the same compound?
Its viability, T/C is 57.1%.

What about the viability, T/C (second compound 10 µM, first compound 0.0316 µM) of the same compound?
The viability, T/C was 82.7%.

And the viability, T/C (second compound 10 µM, first compound 0.1 µM)?
The viability, T/C was 88.5%.

And the viability, T/C (second compound 10 µM, first compound 0.316 µM)?
Its viability, T/C is 91.1%.

And the viability, T/C (second compound 10 µM, first compound 1 µM)?
Its viability, T/C is 81.7%.

And the viability, T/C (second compound 10 µM, first compound 3.16 µM)?
Its viability, T/C is 70.8%.

And the viability, T/C (second compound 10 µM, first compound 10 µM)?
Its viability, T/C is 43.3%.

Which viability, T/C (compound 0.0316 µM) does the source give for `C[C@@H](NC(=O)c1ncnc(N)c1Cl)c1ncc(C(=O)Nc2cc(C(F)(F)F)c(Cl)cn2)s1` here?
Its viability, T/C is 110% [middle of 4 runs].

What about the viability, T/C (compound 0.1 µM) of the same compound?
Its viability, T/C is 103% [middle of 4 runs].

And the viability, T/C (compound 0.316 µM)?
The viability, T/C was 110% (2×) and 119% and 115%.

And the viability, T/C (compound 1 µM)?
Its viability, T/C is 114% [middle of 4 runs].

And the viability, T/C (compound 10 µM)?
Its viability, T/C is 131% [middle of 4 runs].

What about the IC50 (curve of compound) of the same compound?
The IC50 was greater than 10 µM.

— PubChem BioAssay AID1963965 (Molecular Pharmacology Branch, DTP, NCI, 2024)
